Experimental findings from patent US7998989B2, “2-Imino-1,3-thiazoline-based compounds and T-type calcium channel inhibitors containing the same” (Korea Institute of Science and Technology, priority 2007, dated 2011) are described below.

Where two headings read alike, the source gives them in different places.

As a reminder, the melting point is the temperature, or range, at which the solid turns liquid.

The target of series [1] is T1, α1G T-type calcium channel (Homo sapiens, UniProt O43497).
T1 construct: host or cells: HEK293
The experiment in a line: Assay for % inhibiting activity against T-type calcium channel using FDSS6000 (fluo-3 calcium imaging, KCl activation). The following applies: HEK293 cells stably expressing α1G T-type calcium channel and Kir2.1, compounds of the examples; for inhibition at 10 µM: read-out: FDSS (% inhibition)/10uM. Type of series: cell-based. Summed up: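 Percent inhibition derived from […] area against untreated control (100%), after 75 s compound pre-exposure and 75 mM KCl activation. Cells: HEK293 with stable α1G plus Kir2.1, fluo-3/AM-labelled (5 μM), assayed in pH 7.4 HEPES containing 10 mM CaCl2.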

T1 sequence (O43497 whole entry): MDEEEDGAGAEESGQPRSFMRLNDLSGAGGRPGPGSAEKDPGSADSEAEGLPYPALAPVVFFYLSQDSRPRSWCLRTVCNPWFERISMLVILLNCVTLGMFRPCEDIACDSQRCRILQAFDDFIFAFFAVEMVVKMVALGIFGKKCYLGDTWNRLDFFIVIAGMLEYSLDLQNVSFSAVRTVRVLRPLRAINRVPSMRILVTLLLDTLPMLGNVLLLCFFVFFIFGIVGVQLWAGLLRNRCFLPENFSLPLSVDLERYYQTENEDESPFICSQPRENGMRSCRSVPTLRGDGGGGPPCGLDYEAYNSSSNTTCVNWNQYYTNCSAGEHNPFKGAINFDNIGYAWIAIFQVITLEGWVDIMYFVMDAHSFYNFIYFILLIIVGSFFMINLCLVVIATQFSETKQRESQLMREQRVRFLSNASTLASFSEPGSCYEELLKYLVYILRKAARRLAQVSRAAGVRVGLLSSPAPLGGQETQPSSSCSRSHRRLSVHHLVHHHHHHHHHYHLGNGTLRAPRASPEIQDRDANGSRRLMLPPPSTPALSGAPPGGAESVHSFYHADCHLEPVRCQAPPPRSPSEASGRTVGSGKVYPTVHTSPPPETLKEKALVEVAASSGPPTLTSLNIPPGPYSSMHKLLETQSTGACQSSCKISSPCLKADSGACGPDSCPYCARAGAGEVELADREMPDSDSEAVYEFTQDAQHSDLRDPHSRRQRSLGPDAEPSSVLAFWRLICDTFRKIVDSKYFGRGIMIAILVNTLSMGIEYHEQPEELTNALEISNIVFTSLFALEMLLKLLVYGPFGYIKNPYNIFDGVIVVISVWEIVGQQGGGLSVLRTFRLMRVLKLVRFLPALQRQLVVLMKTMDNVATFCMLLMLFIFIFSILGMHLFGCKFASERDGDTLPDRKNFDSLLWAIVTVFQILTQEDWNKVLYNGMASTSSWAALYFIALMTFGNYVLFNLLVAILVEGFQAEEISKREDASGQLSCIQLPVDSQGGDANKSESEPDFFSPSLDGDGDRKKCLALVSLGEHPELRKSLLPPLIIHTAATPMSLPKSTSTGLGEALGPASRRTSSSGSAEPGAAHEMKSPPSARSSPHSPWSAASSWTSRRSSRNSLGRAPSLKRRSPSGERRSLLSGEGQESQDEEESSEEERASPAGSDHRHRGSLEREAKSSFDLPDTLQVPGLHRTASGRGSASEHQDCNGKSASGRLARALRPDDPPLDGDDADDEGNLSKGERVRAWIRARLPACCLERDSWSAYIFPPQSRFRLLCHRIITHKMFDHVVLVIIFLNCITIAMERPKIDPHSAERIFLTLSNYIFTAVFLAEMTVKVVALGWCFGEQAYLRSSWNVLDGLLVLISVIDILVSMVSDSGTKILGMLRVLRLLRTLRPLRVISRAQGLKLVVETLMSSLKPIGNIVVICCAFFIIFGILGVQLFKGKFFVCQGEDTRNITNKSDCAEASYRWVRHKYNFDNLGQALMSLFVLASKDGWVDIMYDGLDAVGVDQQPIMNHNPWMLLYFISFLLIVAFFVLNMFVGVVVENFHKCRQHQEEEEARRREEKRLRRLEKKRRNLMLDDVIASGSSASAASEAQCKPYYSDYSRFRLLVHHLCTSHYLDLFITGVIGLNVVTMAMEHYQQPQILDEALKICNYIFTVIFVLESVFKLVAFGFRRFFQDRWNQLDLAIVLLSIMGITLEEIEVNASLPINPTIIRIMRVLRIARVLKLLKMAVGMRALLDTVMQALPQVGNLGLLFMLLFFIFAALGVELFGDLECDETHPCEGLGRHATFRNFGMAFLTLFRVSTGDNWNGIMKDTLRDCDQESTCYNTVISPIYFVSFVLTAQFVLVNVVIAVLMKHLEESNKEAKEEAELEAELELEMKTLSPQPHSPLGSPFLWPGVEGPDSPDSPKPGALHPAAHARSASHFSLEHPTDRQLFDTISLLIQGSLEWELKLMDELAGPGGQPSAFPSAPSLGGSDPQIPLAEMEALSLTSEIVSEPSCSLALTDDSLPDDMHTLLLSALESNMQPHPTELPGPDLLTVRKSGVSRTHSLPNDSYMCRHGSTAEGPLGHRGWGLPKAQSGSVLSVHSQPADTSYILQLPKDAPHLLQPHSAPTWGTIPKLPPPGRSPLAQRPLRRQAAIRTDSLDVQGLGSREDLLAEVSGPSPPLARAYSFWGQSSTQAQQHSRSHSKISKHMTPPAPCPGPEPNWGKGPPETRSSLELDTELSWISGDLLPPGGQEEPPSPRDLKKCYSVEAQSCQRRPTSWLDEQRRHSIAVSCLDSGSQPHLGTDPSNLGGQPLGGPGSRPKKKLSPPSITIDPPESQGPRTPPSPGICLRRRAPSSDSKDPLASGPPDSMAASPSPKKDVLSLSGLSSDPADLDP

Turning to `CN1C(=NC2CCCCCC2)SCC1C(=O)NCc1cccc(F)c1.Cl` (stereo not drawn) [KHG24666, (2-cycloheptylimino-3-methyl-1,3-thiazolidine-4-yl)-N-(3-fluorobenzyl)-carboxamide hydrochloride], the melting point amounted to 226.1 °C. Further, the inhibition at 10 µM in series [1] (HEK293, 10 μM) amounted to 46.2%.

As to `CN1C(=NC2CCCCCC2)SCC1C(=O)NCc1cccc(F)c1` (stereo not drawn) [KHG24667, (2-cycloheptylimino-3-methyl-1,3-thiazolidine-4-yl)-N-(3-fluorobenzyl)-carboxamide], the melting point stood at 140.1 °C. Moreover, in series [1] (10 μM), the “FDSS (% inhibition)/10uM” value turned out to be 45.99%.

`Br.CN1C(=NC2CCCCCC2)SCC1C(=O)NCc1cccc(Br)c1` (stereo not drawn) [KHG24668, (2-cycloheptylimino-3-methyl-1,3-thiazolidine-4-yl)-N-(3-bromobenzyl)-carboxamide hydrobromide] displayed a melting point of 197.3 °C. Further, in series [1] (HEK293, 10 μM), the inhibition at 10 µM was found to be 50.7%.

`CN1C(=NC2CCCCCC2)SCC1C(=O)NCc1cccc(Br)c1` (stereo not drawn) [KHG24669, (2-cycloheptylimino-3-methyl-1,3-thiazolidine-4-yl)-N-(3-bromobenzyl)-carboxamide] came in with a melting point of 133 °C. Besides, the “FDSS (% inhibition)/10uM” value in series [1] (10 μM) is 36.57%.

Take `Br.CN1C(=NC2CCCCCC2)SCC1C(=O)NCc1ccccc1C(F)(F)F` (stereo not drawn) [KHG24670, (2-cycloheptylimino-3-methyl-1,3-thiazolidine-4-yl)-N-(2-trifluoromethylbenzyl)-carboxamide hydrobromide]: the melting point was found to be 236.9 °C. Moreover, the inhibition at 10 µM in series [1] (HEK293, 10 μM) is 46.7%.

As to `CN1C(=NC2CCCCCC2)SCC1C(=O)NCc1ccccc1C(F)(F)F` (stereo not drawn) [KHG24671, (2-cycloheptylimino-3-methyl-1,3-thiazolidine-4-yl)-N-(2-trifluoromethylbenzyl)-carboxamide], the melting point was determined as 223 °C. Moreover, the “FDSS (% inhibition)/10uM” value in series [1] (10 μM) turned out to be 47.2%.

Regarding `CCCCN1C(=NC23CC4CC(CC(C4)C2)C3)SCC1CC(=O)Nc1ccc(Cl)cc1.Cl` (stereo not drawn) [KHG24775, [2-(1-adamantylimino)-3-(n-butyl)-1,3-thiazolidine-4-yl]-N-(4-chlorophenyl)-acetamide hydrochloride], the melting point worked out at 158 °C. Moreover, the inhibition at 10 µM in series [1] (HEK293, 10 μM) came to 62.9%.

`CCCCc1ccc(NC(=O)CC2CSC(=NC34CC5CC(CC(C5)C3)C4)N2CCCC)cc1.Cl` (stereo not drawn) [KHG24776, [2-(1-adamantylimino)-3-(n-butyl)-1,3-thiazolidine-4-yl]-N-(4-n-butylphenyl)-acetamide hydrochloride]: the melting point is 169 °C. In addition, the inhibition at 10 µM in series [1] (HEK293, 10 μM) was determined as 33.8%.

In the case of `CCCCN1C(=NC23CC4CC(CC(C4)C2)C3)SCC1CC(=O)Nc1ccc(C(F)(F)F)cc1.Cl` (stereo not drawn) [KHG24777, [2-(1-adamantylimino)-3-(n-butyl)-1,3-thiazolidine-4-yl]-N-(4-trifluoromethylphenyl)-acetamide hydrochloride], the melting point was 220 °C. For the same compound, the inhibition at 10 µM in series [1] (HEK293, 10 μM) came out at 49.2%.

In turn, `CCCCN1C(=NC23CC4CC(CC(C4)C2)C3)SCC1CC(=O)Nc1ccc(F)cc1.Cl` (stereo not drawn) [KHG24780, [2-(1-adamantylimino)-3-(n-butyl)-1,3-thiazolidine-4-yl]-N-(4-fluorophenyl)-acetamide hydrochloride] displayed a melting point of 163 °C. In series [1] (10 μM), the inhibition at 10 µM is 55.3%.

Turning to `CCCCN1C(=NC23CC4CC(CC(C4)C2)C3)SCC1CC(=O)Nc1ccc(C)cc1.Cl` (stereo not drawn) [KHG24781, [2-(1-adamantylimino)-3-(n-butyl)-1,3-thiazolidine-4-yl]-N-(4-methylphenyl)-acetamide hydrochloride], the melting point was 164 °C. Besides, the inhibition at 10 µM in series [1] (HEK293, 10 μM) worked out at 47.2%.

`CCCCN1C(=NC23CC4CC(CC(C4)C2)C3)SCC1CC(=O)Nc1ccc(CC)cc1.Cl` (stereo not drawn) [KHG24782, [2-(1-adamantylimino)-3-(n-butyl)-1,3-thiazolidine-4-yl]-N-(4-ethylphenyl)-acetamide hydrochloride] came in with a melting point of 156 °C. For the same compound, the inhibition at 10 µM in series [1] (HEK293, 10 μM) came out at 30.6%.
